Data on 1 substance can be found in publication PMC11148045, “Structural basis for recognition of 26RFa by the pyroglutamylated RFamide peptide receptor” (Cell Discovery, 2024).

No end group written: not given here.

Common to all, as to assay: 26RFa-induced calcium mobilization, receptor mutants
What all share (assay type): cell-based

Assay [1] deals with T1, QRFPR mutants (Homo sapiens, UniProt Q96P65).
T1 construct: expressed in transfected cells; host or cells: HEK293, transient transfection by electroporation
How it is done:
(§1) The gene encoding the WT QRFPR, PrPRR, KISS1R, NPFF1R, or NPFF2R was subcloned into the pcDNA3.0 vector with the addition of an N-terminal HA tag. All of the mutations used for functional studies were generated by QuickChange PCR and verified by DNA sequencing.
(§2) HEK293 cells were obtained from ATCC (Manassas, VA, USA) and cultured in DMEM supplemented with 10% (v/v) FBS, 100 mg/L penicillin, and 100 mg/L streptomycin in 5% CO2 at 37 °C. For transient transfection, ~2.5 × 10^6 cells were mixed with 2 µg plasmids in 200 µL transfection buffer, and electroporation was carried out with a Scientz-2C electroporation apparatus (Scientz Biotech, Ningbo, China). The experiments were carried out 24 h after transfection.
(§3) For QRFPR, PrRPR, and KISS1R, HEK293 cells transfected with WT receptor or its mutants were seeded at a density of 4 × 10^4 per well into 96-well culture plates and incubated for 24 h at 37 °C in 5% CO2. For NPFF1R and NPFF2R, plasmids were transfected into HEK293 cells stably expressing Gα16. On the next day, cells were incubated with 2 μmol/L Fluo-4 AM in HBSS supplemented with 5.6 mmol/L D-glucose and 250 μmol/L sulfinpyrazone at 37 °C for 45 min. After washing, cells were added with 50 μL HBSS and incubated at room temperature for 10 min, then 25 μL agonist buffer was dispensed into the well using a FlexStation III microplate reader (Molecular Devices), and intracellular calcium change was recorded at an excitation wavelength of 485 nm and an emission wavelength of 525 nm. EC50 and Emax values for each curve were calculated by Prism 8.0 software (GraphPad Software).

The target of assay [2] is T2, QRFPR mutants (Homo sapiens, UniProt Q96P65, C200A).
T2 construct: expressed in transfected cells; host or cells: HEK293, transient transfection by electroporation
As to conditions: HEK293, QRFPR C200^ECL2A; HEK293, Fluo-4; mean ± S.E.M., n ≥ 3. On the procedure:
as §1, §2, §3

Assay [3] has as its target T3, QRFPR mutants (Homo sapiens, UniProt Q96P65, H290A).
T3 construct: expressed in transfected cells; host or cells: HEK293, transient transfection by electroporation
The following applies: HEK293, QRFPR H290^6.52A; HEK293, Fluo-4; mean ± S.E.M., n ≥ 3. How it is done: as §1, §2, §3

The target in assay [4] is T4, QRFPR mutants (Homo sapiens, UniProt Q96P65, Q184A).
T4 construct: expressed in transfected cells; host or cells: HEK293, transient transfection by electroporation
As to conditions: HEK293, QRFPR Q184^4.64A; HEK293, Fluo-4; mean ± S.E.M., n ≥ 3. How it is done:
as §1, §2, §3

The target of assay [5] is T5, QRFPR mutants (Homo sapiens, UniProt Q96P65, L222A).
T5 construct: expressed in transfected cells; host or cells: HEK293, transient transfection by electroporation
On the procedure: as §1, §2, §3

For assay [6], the target named is T6, QRFPR mutants (Homo sapiens, UniProt Q96P65, W205A).
T6 construct: expressed in transfected cells; host or cells: HEK293, transient transfection by electroporation
As to conditions: HEK293, QRFPR W205^ECL2A; HEK293, Fluo-4; mean ± S.E.M., n ≥ 3. On the procedure:
as §1, §2, §3

In assay [7] the target is T7, QRFPR mutants (Homo sapiens, UniProt Q96P65, E297A).
T7 construct: expressed in transfected cells; host or cells: HEK293, transient transfection by electroporation
On the procedure:
as §1, §2, §3

For assay [8], the target named is T8, QRFPR mutants (Homo sapiens, UniProt Q96P65, T215A).
T8 construct: expressed in transfected cells; host or cells: HEK293, transient transfection by electroporation
The following applies: HEK293, QRFPR T215^5.39A; HEK293, Fluo-4; mean ± S.E.M., n ≥ 3. On the procedure:
as §1, §2, §3

Assay [9] addresses T9, QRFPR mutants (Homo sapiens, UniProt Q96P65, M180A).
T9 construct: expressed in transfected cells; host or cells: HEK293, transient transfection by electroporation
As to conditions: HEK293, QRFPR M180^4.60A; HEK293, Fluo-4; mean ± S.E.M., n ≥ 3. How it is done: as §1, §2, §3

Assay [10] has as its target T10, QRFPR mutants (Homo sapiens, UniProt Q96P65, I199A).
T10 construct: expressed in transfected cells; host or cells: HEK293, transient transfection by electroporation
As to conditions: HEK293, QRFPR I199^ECL2A; HEK293, Fluo-4; mean ± S.E.M., n ≥ 3. How it is done:
as §1, §2, §3

The target of assay [11] is T11, QRFPR mutants (Homo sapiens, UniProt Q96P65, Q318A).
T11 construct: expressed in transfected cells; host or cells: HEK293, transient transfection by electroporation
The following applies: HEK293, QRFPR Q318^7.39A; HEK293, Fluo-4; mean ± S.E.M., n ≥ 3. How it is done: as §1, §2, §3

Assay [12] has as its target T12, QRFPR mutants (Homo sapiens, UniProt Q96P65, I218A).
T12 construct: expressed in transfected cells; host or cells: HEK293, transient transfection by electroporation
The following applies: HEK293, QRFPR I218^5.42A; HEK293, Fluo-4; mean ± S.E.M., n ≥ 3. How it is done:
as §1, §2, §3

Assay [13] has as its target T13, QRFPR mutants (Homo sapiens, UniProt Q96P65, Q211A).
T13 construct: expressed in transfected cells; host or cells: HEK293, transient transfection by electroporation
As to conditions: HEK293, QRFPR Q211^5.35A; HEK293, Fluo-4; mean ± S.E.M., n ≥ 3. On the procedure: as §1, §2, §3

In assay [14] the target is T14, QRFPR mutants (Homo sapiens, UniProt Q96P65, F322A).
T14 construct: expressed in transfected cells; host or cells: HEK293, transient transfection by electroporation
As to conditions: HEK293, QRFPR F322^7.43A; HEK293, Fluo-4; mean ± S.E.M., n ≥ 3. How it is done: as §1, §2, §3

The target of assay [15] is T15, QRFPR mutants (Homo sapiens, UniProt Q96P65, D109A).
T15 construct: expressed in transfected cells; host or cells: HEK293, transient transfection by electroporation
As to conditions: HEK293, QRFPR D109^2.67A; HEK293, Fluo-4; mean ± S.E.M., n ≥ 3. On the procedure:
as §1, §2, §3

In assay [16] the target is T16, QRFPR mutants (Homo sapiens, UniProt Q96P65, L202A).
T16 construct: expressed in transfected cells; host or cells: HEK293, transient transfection by electroporation
As to conditions: HEK293, QRFPR L202^45.51A; HEK293, Fluo-4; mean ± S.E.M., n ≥ 3. How it is done:
as §1, §2, §3

T7 sequence (Q96P65 whole entry E297A): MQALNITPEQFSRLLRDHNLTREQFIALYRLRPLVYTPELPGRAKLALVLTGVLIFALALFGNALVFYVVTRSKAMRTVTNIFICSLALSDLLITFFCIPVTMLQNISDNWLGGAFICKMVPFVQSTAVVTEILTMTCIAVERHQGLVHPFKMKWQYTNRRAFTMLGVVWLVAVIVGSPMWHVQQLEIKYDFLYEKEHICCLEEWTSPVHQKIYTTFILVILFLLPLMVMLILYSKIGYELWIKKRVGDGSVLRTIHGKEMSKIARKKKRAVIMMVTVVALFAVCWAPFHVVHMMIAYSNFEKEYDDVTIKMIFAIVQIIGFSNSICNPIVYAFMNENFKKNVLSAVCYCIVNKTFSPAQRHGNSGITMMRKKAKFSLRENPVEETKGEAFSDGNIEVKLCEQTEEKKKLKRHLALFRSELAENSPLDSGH
T5 sequence (Q96P65 whole entry L222A): as the sequence (Q96P65 whole entry E297A) above, with L222A, A297E counted along it
T1 sequence (Q96P65 39-431, change not shown): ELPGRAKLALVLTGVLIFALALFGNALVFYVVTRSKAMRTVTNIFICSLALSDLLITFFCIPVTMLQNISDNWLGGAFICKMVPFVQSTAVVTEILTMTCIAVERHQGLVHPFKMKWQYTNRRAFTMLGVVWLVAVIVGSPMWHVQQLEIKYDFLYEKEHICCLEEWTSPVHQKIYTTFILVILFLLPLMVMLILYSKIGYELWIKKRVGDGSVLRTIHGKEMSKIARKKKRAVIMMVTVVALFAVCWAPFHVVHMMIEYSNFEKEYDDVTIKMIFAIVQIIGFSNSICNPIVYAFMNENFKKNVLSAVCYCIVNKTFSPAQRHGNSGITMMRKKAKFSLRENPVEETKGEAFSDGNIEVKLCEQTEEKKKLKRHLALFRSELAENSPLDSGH
T4 sequence (Q96P65 whole entry Q184A): as the sequence (Q96P65 whole entry E297A) above, with Q184A, A297E counted along it
T13 sequence (Q96P65 whole entry Q211A): as the sequence (Q96P65 whole entry E297A) above, with Q211A, A297E counted along it
T3 sequence (Q96P65 whole entry H290A): as the sequence (Q96P65 whole entry E297A) above, with H290A, A297E counted along it
T11 sequence (Q96P65 whole entry Q318A): as the sequence (Q96P65 whole entry E297A) above, with A297E, Q318A counted along it
T8 sequence (Q96P65 whole entry T215A): as the sequence (Q96P65 whole entry E297A) above, with T215A, A297E counted along it
T9 sequence (Q96P65 whole entry M180A): as the sequence (Q96P65 whole entry E297A) above, with M180A, A297E counted along it
T14 sequence (Q96P65 whole entry F322A): as the sequence (Q96P65 whole entry E297A) above, with A297E, F322A counted along it
T6 sequence (Q96P65 whole entry W205A): as the sequence (Q96P65 whole entry E297A) above, with W205A, A297E counted along it
T12 sequence (Q96P65 whole entry I218A): as the sequence (Q96P65 whole entry E297A) above, with I218A, A297E counted along it
T10 sequence (Q96P65 whole entry I199A): as the sequence (Q96P65 whole entry E297A) above, with I199A, A297E counted along it
T16 sequence (Q96P65 whole entry L202A): as the sequence (Q96P65 whole entry E297A) above, with L202A, A297E counted along it
T2 sequence (Q96P65 whole entry C200A): as the sequence (Q96P65 whole entry E297A) above, with C200A, A297E counted along it
T15 sequence (Q96P65 whole entry D109A): as the sequence (Q96P65 whole entry E297A) above, with D109A, A297E counted along it

For the substance ASGPLGTLAEELSSYSRRKGGFSFRF-NH2 [26RFa], the Emax (in general, the size of the effect at its maximum, as opposed to the concentration needed) at QRFPR mutants [1] (HEK293, QRFPR Δ1-38, HEK293, Fluo-4, mean ± S.E.M., n ≥ 3) is 14.7 ± 1.5%; at QRFPR mutants [2], 88.5 ± 1.2%; on QRFPR mutants [3], 60.4 ± 0.39%; on QRFPR mutants [4], 71.4 ± 2.2%; on QRFPR mutants [5] (HEK293, QRFPR L222^5.46A, HEK293, Fluo-4, mean ± S.E.M., n ≥ 3), 99 ± 1.3%; at QRFPR mutants [6] it was 2.58 ± 1.2%. In addition, the maximal effect (Emax) at QRFPR mutants [7] (HEK293, QRFPR E297^6.59A, HEK293, Fluo-4, mean ± S.E.M., n ≥ 3) was found to be 107 ± 0.8%; at QRFPR mutants [8], 85.8 ± 3.4%; at QRFPR mutants [9], 93.3 ± 1%; at QRFPR mutants [10] it was 89.7 ± 2.3%; on QRFPR mutants [11], 1.69 ± 0.66%; at QRFPR mutants [12], 77.8 ± 0.31%. In addition, the maximal response (Emax) at QRFPR mutants [13] came to 94.9 ± 1.6%; at QRFPR mutants [14], 11.1 ± 0.26%; at QRFPR mutants [15], 111 ± 1.3%; on QRFPR mutants [16], 101 ± 2.3%. Moreover, the “peptide-induced QRFPR activity” value at QRFPR mutants [1] (QRFPR Δ1–38 (entire N-terminus truncated)) is “abolished the peptide-induced QRFPR activity”. For the same substance, the “effect of L^5.46 on peptide activity” value on QRFPR mutants [5] (26RFa, QRFPR L^5.46 (Supplementary Fig. S3)) was “negligible effects”. For the same substance, on QRFPR mutants [7] (QRFPR 6.59 to alanine (printed D^6.59)), the “effect of mutation on 26RFa activity” value is recorded as “almost did not affect 26RFa activity”.
